Experimental data as given in the NIST ThermoML archive (doi:10.1021/je049544x).

Tests used:
[1] = Liquid; for mass density / speed of sound: 298.15 K, 101.3 kPa; for speed of sound: Sing-around technique in a fixed-path interferometer
[2] = refractive index (Na D-line) (dimensionless); conditions: 298.15 K; 101.33 kPa; Liquid; Standard Abbe refractometry
[3] = xn = mol fraction of the nth substance listed; conditions: 298.15 K, 101.3 kPa, Liquid; for speed of sound: Sing-around technique in a fixed-path interferometer
[4] = refractive index (Na D-line) (dimensionless); xn = mol fraction of the nth substance listed; conditions: 298.15 K, 101.3 kPa, Liquid, Standard Abbe refractometry

CCOC(=O)OCC [diethyl carbonate]
Conditions	mass density [kg/m3]	refractive index	speed of sound [m/s]
[1]	969	–	1176.1
[2]	–	1.38221	–

Conditions	vapor or sublimation pressure [kPa]
[1], 399.6 K	101.3

CCOC(=O)OCC [diethyl carbonate] + C=COC(C)=O
x2 = 0
Conditions	mass density [kg/m3]	refractive index	speed of sound [m/s]
[3]	969	–	1176.1
[4]	–	1.38221	–

CCOC(=O)OCC [diethyl carbonate] + CO
Conditions	mass density, [3] [kg/m3]	refractive index, [4]	speed of sound, [3] [m/s]
x2 = 0	969	1.38221	1176.1
x2 = 0.063	964.93	1.38098	1174.8
x2 = 0.098	962.48	1.38026	1174.1
x2 = 0.159	958.15	1.37901	1171.5
x2 = 0.192	955.62	1.37825	1169.9
x2 = 0.251	950.7	1.3769	1167
x2 = 0.302	946.14	1.37563	1164.3
x2 = 0.371	939.23	1.37345	1160.6
x2 = 0.415	934.4	1.37205	1158.1
x2 = 0.453	929.92	1.3705	1155.9
x2 = 0.49	925.16	1.36915	1153.8
x2 = 0.543	917.68	1.367	1150.2
x2 = 0.592	910.04	1.36457	1146.9
x2 = 0.655	898.92	1.36118	1142.2
x2 = 0.69	892	1.359	1139.5
x2 = 0.75	878.54	1.35486	1134.1
x2 = 0.8	865.37	1.3509	1129.2
x2 = 0.848	850.75	1.34641	1123.8
x2 = 0.897	833.8	1.34105	1117.8
x2 = 0.948	812.41	1.3344	1110.4

CO [methanol]
Conditions	mass density [kg/m3]	refractive index	speed of sound [m/s]
[1]	786.56	–	1101.8
[2]	–	1.32634	–

Conditions	vapor or sublimation pressure [kPa]
[1], 337.9 K	101.3

CO [methanol] + CCOC(=O)OCC
x1 = 1
Conditions	mass density [kg/m3]	refractive index	speed of sound [m/s]
[3]	786.56	–	1101.8
[4]	–	1.32634	–

C=COC(C)=O [vinyl acetate]
Conditions	mass density [kg/m3]	refractive index	speed of sound [m/s]
[1]	925.59	–	1115.6
[2]	–	1.39253	–

Conditions	vapor or sublimation pressure [kPa]
[1], 346.1 K	101.3

C=COC(C)=O [vinyl acetate] + CCOC(=O)OCC
Conditions	mass density, [3] [kg/m3]	refractive index, [4]	speed of sound, [3] [m/s]
x1 = 0.043	967.68	1.3826	1174.2
x1 = 0.105	965.65	1.3832	1171.2
x1 = 0.17	963.45	1.38373	1167.9
x1 = 0.193	962.74	1.38396	1166.9
x1 = 0.254	960.55	1.38458	1163.6
x1 = 0.299	958.92	1.385	1161.2
x1 = 0.353	956.87	1.3855	1158.2
x1 = 0.407	954.79	1.38602	1155.2
x1 = 0.458	952.74	1.38655	1152.3
x1 = 0.507	950.71	1.38706	1149.3
x1 = 0.556	948.6	1.38757	1146.4
x1 = 0.598	946.73	1.38804	1143.7
x1 = 0.65	944.3	1.38859	1140.4
x1 = 0.697	942.05	1.38917	1137.2
x1 = 0.744	939.73	1.38968	1134.1
x1 = 0.803	936.72	1.39031	1130.1
x1 = 0.85	934.22	1.39087	1126.7
x1 = 0.901	931.44	1.39143	1123.1
x1 = 0.946	928.87	1.39197	1119.8
x1 = 1	925.59	1.39253	1115.6
